Earlier results, collected in paper PMC11070408, “Bifunctional octadentate pseudopeptides as Zirconium-89 chelators for immuno-PET applications” (EJNMMI Radiopharmacy and Chemistry, 2024).

Design: method as in Sarbisheh and Salih [2020]
Details: ref Sarbisheh and Salih [2020]

CC(=O)N(O)CCCCCNC(=O)CCC(=O)N(O)CCCCCNC(=O)CCC(=O)N(O)CCCCCNC(=O)CCC(=O)NCC(CNC(=O)CCC(=O)NCCCCCN(O)C(=O)CCC(=O)NCCCCCN(O)C(=O)CCC(=O)NCCCCCN(O)C(C)=O)Cc1ccc([N+](=O)[O-])cc1 [DFO2]
solubility in water: poor
